Experimental findings from US8017600B2, “Imidazole compounds” (Janssen Pharmaceutica NV, priority 2004, dated 2011) are described below.

pKi: −log10 of the molar value.

By pKi is commonly meant the Ki on a negative log10 scale, so that one unit is a factor of ten.

T1 sequence (Q9H3N8 whole entry): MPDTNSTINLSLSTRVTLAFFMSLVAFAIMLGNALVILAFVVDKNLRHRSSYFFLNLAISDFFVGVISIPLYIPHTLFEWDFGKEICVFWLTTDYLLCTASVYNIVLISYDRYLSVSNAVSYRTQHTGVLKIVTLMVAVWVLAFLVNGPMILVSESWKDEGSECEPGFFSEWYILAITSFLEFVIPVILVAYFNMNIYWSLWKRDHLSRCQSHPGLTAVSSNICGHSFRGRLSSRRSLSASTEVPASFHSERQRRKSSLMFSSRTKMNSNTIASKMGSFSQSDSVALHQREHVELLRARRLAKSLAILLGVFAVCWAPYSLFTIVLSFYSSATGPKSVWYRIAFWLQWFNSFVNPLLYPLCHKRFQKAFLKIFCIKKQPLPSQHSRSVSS

The experiment has as its target T1, human histamine H4 receptor (Homo sapiens, UniProt Q9H3N8).
T1 construct: expressed in transfected cells; host or cells: SK-N-MC cells or COS7 cells, transient transfection; cell membranes
The experiment is described as follows: Binding assay on recombinant human histamine H4 receptor (3H-histamine displacement). The settings on record: membranes of SK-N-MC or COS7 cells expressing human H4 receptor, Cheng-Prusoff. As to the method:
SK-N-MC cells or COS7 cells were transiently transfected with pH4R and grown in 150 cm^2 tissue culture dishes. Cells were washed with saline solution, scraped with a cell scraper and collected by centrifugation (1000 rpm, 5 min). Cell membranes were prepared by homogenization of the cell pellet in 20 mM Tris-HCl with a polytron tissue homogenizer for 10 sec at high speed. Homogenate was centrifuged at 1000 rpm for 5 min at 4° C. The supernatant was then collected and centrifuged at 20,000×g for 25 min at 4° C. The final pellet was resuspended in 50 mM Tris-HCl. Cell membranes were incubated with ^3H-histamine (5-70 nM) in the presence or absence of excess histamine (10,000 nM). Incubation occurred at room temperature for 45 min. Membranes were harvested by rapid filtration over Whatman GF/C filters and washed 4 times with ice-cold 50 mM Tris HCl. Filters were then dried, mixed with scintillant and counted for radioactivity. SK-N-MC or COS7 cells expressing human histamine H4 receptor were used to measure the affinity of binding of other compounds and their ability to displace ^3H-ligand binding by incubating the above-described reaction in the presence of various concentrations of inhibitor or compound to be tested.
Turning to `CN1CCN(CCCOc2ccc(-c3nc(-c4ccc(Br)cc4)c(-c4ccc(Br)cc4)[nH]3)c(Cl)c2)CC1` [Example 1, 1-(3-{4-[4,5-Bis-(4-bromo-phenyl)-1H-imidazol-2-yl]-3-chloro-phenoxy}-propyl)-4-methyl-piperazine], the pKi was 7.85.
As for `CN1CCN(CCCOc2ccc(-c3nc(-c4ccccc4)c(-c4ccccc4)[nH]3)c(Cl)c2)CC1` [Example 2, 1-{3-[3-Chloro-4-(4,5-diphenyl-1H-imidazol-2-yl)-phenoxy]-propyl}-4-methyl-piperazine], the negative logarithm of the Ki (pKi) is 7.41.
On to `CN1CCN(CCCOc2ccc(-c3nc(-c4ccccc4Cl)c(-c4ccccc4Cl)[nH]3)c(Cl)c2)CC1` [Example 3, 1-(3-{4-[4,5-Bis-(2-chloro-phenyl)-1H-imidazol-2-yl]-3-chloro-phenoxy}-propyl)-4-methyl-piperazine], for which the pKi is 6.61.
Regarding `COc1ccc(-c2nc(-c3ccc(OCCCN4CCN(C)CC4)cc3Cl)[nH]c2-c2ccc(OC)cc2)cc1` [Example 4, 1-(3-{4-[4,5-Bis-(4-methoxy-phenyl)-1H-imidazol-2-yl]-3-chloro-phenoxy}-propyl)-4-methyl-piperazine], the negative-log Ki (pKi) is 7.36.
To `Cc1ccc(-c2nc(-c3ccc(OCCCN4CCN(C)CC4)cc3Cl)[nH]c2-c2ccc(C)cc2)cc1` [Example 5, 1-{3-[3-Chloro-4-(4,5-di-p-tolyl-1H-imidazol-2-yl)-phenoxy]-propyl}-4-methyl-piperazine] belongs 7.62; to `CN1CCN(CCCOc2ccc(-c3nc(-c4ccc(F)cc4)c(-c4ccc(F)cc4)[nH]3)c(Cl)c2)CC1` [Example 6, 1-(3-{4-[4,5-Bis-(4-fluoro-phenyl)-1H-imidazol-2-yl]-3-chloro-phenoxy}-propyl)-4-methyl-piperazine], 7.54.
For the compound `COc1cccc(-c2nc(-c3ccc(OCCCN4CCN(C)CC4)cc3Cl)[nH]c2-c2cccc(OC)c2)c1` [Example 7, 1-(3-{4-[4,5-Bis-(3-methoxy-phenyl)-1H-imidazol-2-yl]-3-chloro-phenoxy}-propyl)-4-methyl-piperazine], the negative logarithm of the Ki (pKi) was 7.68.
On to `COc1cccc(-c2nc(-c3ccc(OCCCN4CCN(C)CC4)c(F)c3)[nH]c2-c2cccc(OC)c2)c1` [Example 8, 1-(3-{4-[4,5-Bis-(3-methoxy-phenyl)-1H-imidazol-2-yl]-2-fluoro-phenoxy}-propyl)-4-methyl-piperazine], for which the pKi is 7.22.
With `CN1CCCN(CCCOc2ccc(-c3nc(-c4ccc(Br)cc4)c(-c4ccc(Br)cc4)[nH]3)c(Cl)c2)CC1` [Example 9, 1-(3-{4-[4,5-Bis-(4-bromo-phenyl)-1H-imidazol-2-yl]-3-chloro-phenoxy}-propyl)-4-methyl-[1,4]diazepane], the pKi was 7.96.
As for `COc1cccc(-c2nc(-c3ccc(OCCCN4CCCN(C)CC4)cc3Cl)[nH]c2-c2cccc(OC)c2)c1` [Example 10, 1-(3-{4-[4,5-Bis-(3-methoxy-phenyl)-1H-imidazol-2-yl]-3-chloro-phenoxy}-propyl)-4-methyl-[1,4]diazepane], the pKi is 8.22.
As for `Cc1[nH]c(-c2ccc(OCCCN3CCCN(C)CC3)c(Cl)c2)nc1-c1ccccc1` [Example 11, 1-{3-[2-Chloro-4-(5-methyl-4-phenyl-1H-imidazol-2-yl)-phenoxy]-propyl}-4-methyl-[1,4]diazepane], the negative-log Ki (pKi) was 7.15.
Take `CN1CCCN(CCCOc2ccc(-c3nc4c([nH]3)CCCC4)cc2Cl)CC1` [Example 12, 2-{3-Chloro-4-[3-(4-methyl-[1,4]diazepan-1-yl)-propoxy]-phenyl}-4,5,6,7-tetrahydro-1H-benzoimidazole]: the negative logarithm of the Ki (pKi) was 7.19.
For the compound `CN1CCCN(CCCOc2ccc(-c3nc4c([nH]3)CCCC4)c(Cl)c2)CC1` [Example 13, 2-{2-Chloro-4-[3-(4-methyl-[1,4]diazepan-1-yl)-propoxy]-phenyl}-4,5,6,7-tetrahydro-1H-benzoimidazole], the pKi is 7.49.
Regarding `Cc1cc(OCCCC2CCN(C)CC2)ccc1-c1nc(-c2ccccc2)c(C(F)(F)F)[nH]1` [Example 14, 1-Methyl-4-{3-[3-methyl-4-(4-phenyl-5-trifluoromethyl-1H-imidazol-2-yl)-phenoxy]-propyl}-piperidine], the negative-log Ki (pKi) is 7.49.
The result for `CN1CCC(CCCOc2ccc(-c3nc(-c4ccccc4)c(C(F)(F)F)[nH]3)c(Cl)c2)CC1` [Example 15, 4-{3-[3-Chloro-4-(4-phenyl-5-trifluoromethyl-1H-imidazol-2-yl)-phenoxy]-propyl}-1-methyl-piperidine] reads 7.42.
As to `Cc1[nH]c(-c2ccc(OCCCC3CCN(C)CC3)cc2Cl)nc1-c1cccc(C(F)(F)F)c1` [Example 16, 4-(3-{3-Chloro-4-[5-methyl-4-(3-trifluoromethyl-phenyl)-1H-imidazol-2-yl]-phenoxy}-propyl)-1-methyl-piperidine], the pKi was 6.78.
The result for `Cc1[nH]c(-c2ccc(OCCCC3CCN(C)CC3)cc2Cl)nc1-c1cc(Cl)cc(Cl)c1` [Example 17, 4-(3-{3-Chloro-4-[4-(3,5-dichloro-phenyl)-5-methyl-1H-imidazol-2-yl]-phenoxy}-propyl)-1-methyl-piperidine] reads 7.28; that for `Cc1cc(OCCCC2CCN(C)CC2)ccc1-c1nc(-c2cc(Cl)cc(Cl)c2)c(C)[nH]1` [Example 18, 4-(3-{4-[4-(3,5-Dichloro-phenyl)-5-methyl-1H-imidazol-2-yl]-3-methyl-phenoxy}-propyl)-1-methyl-piperidine], 7.35; that for `Cc1[nH]c(-c2ccc(OCCCC3CCN(C)CC3)cc2Cl)nc1-c1ccc(Cl)cc1` [Example 19, 4-(3-{3-Chloro-4-[4-(4-chloro-phenyl)-5-methyl-1H-imidazol-2-yl]-phenoxy}-propyl)-1-methyl-piperidine], 7.66.
Take `CN1CCC(CCCOc2ccc(-c3nc(-c4ccc(F)cc4)c(-c4ccc(F)cc4)[nH]3)c(Cl)c2)CC1` [Example 20, 4-(3-{4-[4,5-Bis-(4-fluoro-phenyl)-1H-imidazol-2-yl]-3-chloro-phenoxy}-propyl)-1-methyl-piperidine]: the pKi is 7.41.
For the compound `COc1cccc(-c2nc(-c3ccc(OCCCC4CCN(C)CC4)cc3Cl)[nH]c2-c2cccc(OC)c2)c1` [Example 21, 4-(3-{4-[4,5-Bis-(3-methoxy-phenyl)-1H-imidazol-2-yl]-3-chloro-phenoxy}-propyl)-1-methyl-piperidine], the pKi is 7.43.
The result for `Cc1ccc(-c2[nH]c(-c3ccc(OCCCC4CCN(C)CC4)cc3Cl)nc2-c2ccc(Cl)cc2)cc1` [Example 22, 4-(3-{3-Chloro-4-[4-(4-chloro-phenyl)-5-p-tolyl-1H-imidazol-2-yl]-phenoxy}-propyl)-1-methyl-piperidine] reads 7.54; that for `CN1CCC(CCCOc2ccc(-c3nc4c([nH]3)CCCC4)c(Cl)c2)CC1` [Example 23, 2-{2-Chloro-4-[3-(1-methyl-piperidin-4-yl)-propoxy]-phenyl}-4,5,6,7-tetrahydro-1H-benzoimidazole], 6.81.
For `CCCc1[nH]c(-c2ccc(OCCCC3CCN(C)CC3)cc2Cl)nc1C` [Example 24, 4-{3-[3-Chloro-4-(4-methyl-5-propyl-1H-imidazol-2-yl)-phenoxy]-propyl}-1-methyl-piperidine], the negative logarithm of the Ki (pKi) is 7.16.
The result for `CCc1[nH]c(-c2ccc(OCCCC3CCN(C)CC3)cc2Cl)nc1C` [Example 25, 4-{3-[3-Chloro-4-(5-ethyl-4-methyl-1H-imidazol-2-yl)-phenoxy]-propyl}-1-methylpiperidine] reads 7.00; that for `Cc1cc(OCCOC2CCN(C)CC2)ccc1-c1nc(-c2cccc(C(F)(F)F)c2)c(C)[nH]1` [Example 26, 1-Methyl-4-(2-{3-methyl-4-[5-methyl-4-(3-trifluoromethyl-phenyl)-1H-imidazol-2-yl]-phenoxy}-ethoxy)-piperidine], 6.52; that for `Cc1[nH]c(-c2ccc(OCCCC3CCN(C)CC3)nc2)nc1-c1cc(Cl)cc(Cl)c1` [Example 27, 5-[4-(3,5-Dichloro-phenyl)-5-methyl-1H-imidazol-2-yl]-2-[3-(1-methyl-piperidin-4-yl)-propoxy]-pyridine], 6.54.
The result for `Cc1[nH]c(-c2ccc(OCCCC3CCN(C)CC3)nc2)nc1-c1ccc(Cl)cc1` [Example 28, 5-[4-(4-Chloro-phenyl)-5-methyl-1H-imidazol-2-yl]-2-[3-(1-methyl-piperidin-4-yl)-propoxy]-pyridine] reads 7.14; that for `Cc1[nH]c(-c2ccc(OCCCC3CCN(C)CC3)nc2)nc1-c1cccc(C(F)(F)F)c1` [Example 29, 2-[3-(1-Methyl-piperidin-4-yl)-propoxy]-5-[5-methyl-4-(3-trifluoromethyl-phenyl)-1H-imidazol-2-yl]-pyridine], 7.38; that for `Cc1[nH]c(-c2ccc(OCCCC3CCN(C)CC3)nc2)nc1-c1ccc(C(F)(F)F)cc1` [Example 30, 2-[3-(1-Methyl-piperidin-4-yl)-propoxy]-5-[5-methyl-4-(4-trifluoromethyl-phenyl)-1H-imidazol-2-yl]-pyridine], 7.19.
`CN1CCC(CCCOc2ccc(-c3nc(-c4ccccc4)c(C(F)(F)F)[nH]3)cn2)CC1` [Example 31, 2-[3-(1-Methyl-piperidin-4-yl)-propoxy]-5-(4-phenyl-5-trifluoromethyl-1H-imidazol-2-yl)-pyridine]: the pKi is 6.73.
